Reference: patent publication US10918642B2, “N-(substituted-phenyl)-sulfonamide derivatives as kinase inhibitors” (Nerviano Medical Sciences S.R.L., priority 2016, dated 2021)

Each compound was assayed against T1, PERK recombinant enzyme (cytoplasmic domain corresponding to residues 540-1115) (Homo sapiens (Human), UniProt Q9NZJ5) (assay: PERK enzyme assay, Method 2: quantification of phosphorylated product with ATP/P33 gammaATP (Dowex resin)). Conditions: Method 2 (P33 gammaATP radiometric); 52 microM ATP, 8 nM PERK, 300 microM eIF2alpha peptide substrate, 60 minutes at room temperature.
Type: biochemical
Protocol: (§1) The biochemical activity of compounds was determined by incubation with PERK recombinant enzyme (cytoplasmic domain corresponding to residues 540-1115) and elF2alpha peptide substrate (Aminoacid sequence: LLSELSRRRIRSINK—SEQ ID Nr: 1; purchased from American Peptide Company, product #341923). This was followed by:
Method 2: Quantification of the Phosphorylated Product Formed from the Kinase Reaction in Presence of ATP (Aldrich, Cat #A2620-9).
Serially diluted compounds were incubated for 60 minutes at room temperature in the presence of ATP/P^33 gammaATP mix, substrate and enzyme in a volume of 15 microL of kinase buffer in 384-well plates (Thermo Scientific, cat #4312).
The reaction volume contains, in final concentration, 52 microM ATP, 8 nM PERK and 300 microM substrate in 50 mM Hepes pH 7.5, 3 mM MgCl2, 1 mM DTT, 3 microM Na3VO4, 0.2 mg/ml BSA. The final concentration of DMSO was 1%.
At the end of the incubation, an amount of 60 microL of Dowex resin (Sigma, customized resin 1×8 200-400 mesh cat #13858-U) in 150 mM sodium formate buffer pH=3.0 was added to stop the reaction and capture unreacted ATP/P^33 gammaATP, separating it from the phosphorylated substrate in solution. After 60 minutes of rest, a volume of 22 microL of supernatant was transferred into 384-Optiplates (Perkin-Elmer, cat #6007290). After the addition of 50 microL of Microscint 40 (Perkin-Elmer, cat #6013641), the radioactivity was counted in the TopCount (Perkin Elmer).
The data per each molecule are analyzed by an internally customized version of the SW package “Assay Explorer”, or by GraphPad Prizm software alternatively, which provides sigmoidal fittings of the curves for IC50 determination using a 4 parameter logistic equation: y=bottom+(top−bottom)/(1+10^((log IC50−x)*slope))
(§2) where x is the logarithm of the inhibitor concentration, y is the response; y starts at bottom and goes to top with a sigmoid shape.

T1 sequence (Q9NZJ5 540-1115): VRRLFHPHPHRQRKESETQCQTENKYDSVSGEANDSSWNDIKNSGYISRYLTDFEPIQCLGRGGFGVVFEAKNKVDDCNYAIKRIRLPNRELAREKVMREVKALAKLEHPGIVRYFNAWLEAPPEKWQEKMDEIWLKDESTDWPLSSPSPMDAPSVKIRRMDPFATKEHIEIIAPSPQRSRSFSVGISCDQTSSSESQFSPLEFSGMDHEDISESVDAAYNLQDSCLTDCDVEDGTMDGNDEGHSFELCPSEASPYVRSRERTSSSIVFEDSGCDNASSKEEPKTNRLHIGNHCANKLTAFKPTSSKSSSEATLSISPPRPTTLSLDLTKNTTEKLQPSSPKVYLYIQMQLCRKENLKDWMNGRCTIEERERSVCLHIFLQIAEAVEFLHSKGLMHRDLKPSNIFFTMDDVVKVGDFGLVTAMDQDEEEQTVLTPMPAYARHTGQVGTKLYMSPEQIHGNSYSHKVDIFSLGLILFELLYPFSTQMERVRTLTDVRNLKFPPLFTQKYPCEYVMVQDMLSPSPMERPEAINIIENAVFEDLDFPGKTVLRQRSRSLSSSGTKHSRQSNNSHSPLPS

Compound | pIC50 | IC50
COc1cc(F)c(S(=O)(=O)Nc2cccc(-c3cn(C4CCN(C)CC4)c4ncnc(N)c34)c2F)cc1C [cmpd 73, N-{3-[4-Amino-7-(1-methyl-piperidin-4-yl)-7H-pyrrolo[2,3-d]pyrimidin-5-yl]-2-fluoro-phenyl}-2-fluoro-4-methoxy-5-methyl-benzenesulfonamide] | AA (7.8 ≤ pIC50) | –
Cn1cc(-c2cccc(NS(=O)(=O)C3CCCCC3)c2F)c2c(N)ncnc21 [cmpd 89, Cyclohexanesulfonic acid [3-(4-amino-7-methyl-7H-pyrrolo[2,3-d]pyrimidin-5-yl)-2-fluoro-phenyl]-amide] | C (pIC50 < 6.8) | –
COc1cc(F)c(S(=O)(=O)Nc2cccc(-c3nn(C4CCN(C(C)C)CC4)c4ncnc(N)c34)c2F)cc1Cl [cmpd 65, N-{3-[4-Amino-1-(1-isopropyl-piperidin-4-yl)-1H-pyrazolo[3,4-d]pyrimidin-3-yl]-2-fluoro-phenyl}-5-chloro-2-fluoro-4-methoxy-benzenesulfonamide] | – | 50.1 to 158 nM
COc1cc(S(=O)(=O)Nc2cccc(-c3cn(C)c4ncnc(N)c34)c2F)c(F)cc1Cl [cmpd 79, N-[3-(4-Amino-7-methyl-7H-pyrrolo[2,3-d]pyrimidin-5-yl)-2-fluoro-phenyl]-4-chloro-2-fluoro-5-methoxy-benzenesulfonamide] | – | 15.8 to 50.1 nM
COc1ccc(S(=O)(=O)Nc2cccc(-c3nn(C4CCN(C)CC4)c4ncnc(N)c34)c2F)cc1Cl [cmpd 66, N-{3-[4-Amino-1-(1-methyl-piperidin-4-yl)-1H-pyrazolo[3,4-d]pyrimidin-3-yl]-2-fluoro-phenyl}-3-chloro-4-methoxy-benzenesulfonamide] | – | 50.1 to 158 nM

Other lines, results leading:

pIC50 | IC50 | Compound
– | 15.8 to 50.1 nM | COc1cc(F)c(S(=O)(=O)Nc2cccc(-c3nn(C4CCN(C)CC4)c4ncnc(N)c34)c2F)cc1Cl [cmpd 61, N-{3-[4-Amino-1-(1-methyl-piperidin-4-yl)-1H-pyrazolo[3,4-d]pyrimidin-3-yl]-2-fluoro-phenyl}-5-chloro-2-fluoro-4-methoxy-benzenesulfonamide]
– | 15.8 to 50.1 nM | CN1CCC(n2cc(-c3cccc(NS(=O)(=O)c4ccc(Br)s4)c3F)c3c(N)ncnc32)CC1 [cmpd 77, 5-Bromo-thiophene-2-sulfonic acid {3-[4-amino-7-(1-methyl-piperidin-4-yl)-7H-pyrrolo[2,3-d]pyrimidin-5-yl]-2-fluoro-phenyl}-amide]
AA (7.8 ≤ pIC50) | – | CN1CCC(n2cc(-c3cccc(NS(=O)(=O)c4ccc(Cl)c(Cl)c4)c3F)c3c(N)ncnc32)CC1 [cmpd 71, N-{3-[4-Amino-7-(1-methyl-piperidin-4-yl)-7H-pyrrolo[2,3-d]pyrimidin-5-yl]-2-fluoro-phenyl}-3,4-dichloro-benzenesulfonamide]
– | 50.1 to 158 nM | COc1cc(F)c(S(=O)(=O)Nc2cccc(-c3cn(C)c4ncnc(N)c34)c2C#N)cc1Cl [cmpd 90, N-[3-(4-Amino-7-methyl-7H-pyrrolo[2,3-d]pyrimidin-5-yl)-2-cyano-phenyl]-5-chloro-2-fluoro-4-methoxy-benzenesulfonamide]
C (pIC50 < 6.8) | – | COc1cc(F)c(S(=O)(=O)Nc2cccc(-c3nn(C4CCN(C(=O)OC(C)(C)C)CC4)c4ncnc(N)c34)c2F)cc1Cl [cmpd 10, 4-{4-Amino-3-[3-(5-chloro-2-fluoro-4-methoxy-benzenesulfonylamino)-2-fluoro-phenyl]-pyrazolo[3,4-d]pyrimidin-1-yl}-piperidine-1-carboxylic acid tert-butyl ester]
– | 15.8 to 50.1 nM | COc1cc(F)c(S(=O)(=O)Nc2cccc(-c3nn(C4CCNCC4)c4ncnc(N)c34)c2F)cc1Cl [cmpd 62, N-[3-(4-Amino-1-piperidin-4-yl-1H-pyrazolo[3,4-d]pyrimidin-3-yl)-2-fluoro-phenyl]-5-chloro-2-fluoro-4-methoxy-benzenesulfonamide]
C (pIC50 < 6.8) | – | COc1ccc(S(=O)(=O)Nc2cccc(-c3nn(C4CCN(C(=O)OC(C)(C)C)CC4)c4ncnc(N)c34)c2F)cc1Cl [cmpd 11, 4-{4-Amino-3-[3-(3-chloro-4-methoxy-benzenesulfonylamino)-2-fluoro-phenyl]-pyrazolo[3,4-d]pyrimidin-1-yl}-piperidine-1-carboxylic acid tert-butyl ester]
– | 15.8 to 50.1 nM | CN1CCC(n2cc(-c3cccc(NS(=O)(=O)c4ccc(Br)cc4F)c3F)c3c(N)ncnc32)CC1 [cmpd 72, N-{3-[4-Amino-7-(1-methyl-piperidin-4-yl)-7H-pyrrolo[2,3-d]pyrimidin-5-yl]-2-fluoro-phenyl}-4-bromo-2-fluoro-benzenesulfonamide]
– | 15.8 to 50.1 nM | COc1ccc(S(=O)(=O)Nc2cccc(-c3nn(C4CCNCC4)c4ncnc(N)c34)c2F)cc1Cl [cmpd 63, N-[3-(4-Amino-1-piperidin-4-yl-1H-pyrazolo[3,4-d]pyrimidin-3-yl)-2-fluoro-phenyl]-3-chloro-4-methoxy-benzenesulfonamide]

Each compound was assayed against T1, PERK recombinant enzyme (cytoplasmic domain corresponding to residues 540-1115) (assay: PERK enzyme assay, Method 1: ADP-Glo Kinase Assay (quantification of ADP formed)). Conditions: 52 microM ATP, 8 nM PERK, 300 microM eIF2alpha peptide substrate, 60 minutes at room temperature.
Type: biochemical
Protocol: as §1
Method 1: Quantification of the ADP Tormed from the Kinase Reaction by ADP-Glo™ Kinase Assay (Promega Cat. 9102). Utra Pure ATP was Included into ADP-Glo™ Kinase Assay kit.
Compounds were 3-fold serially diluted in order to obtain from 3.333 to 0.000169 microM final concentration, then incubated for 60 minutes at room temperature in the presence of ATP, substrate and enzyme in a final volume of 15 microL of kinase buffer in 384-well plates (Perkin Elmer cat. #6007290).
The final concentration of the different reagents is 52 microM ATP, 8 nM PERK, 300 microM substrate, 50 mM Hepes pH 7.5, 3 mM MgCl2, 1 mM DTT, 3 microM Na3VO4, 0.2 mg/ml BSA, 1% DMSO.
After 60 minutes, an equal volume (15 microL) of ADP-Glo™ Reagent was added to each well to terminate the kinase reaction and deplete the remaining ATP. After 40 minutes, 30 microL of Kinase Detection Reagent is added, which simultaneously converts ADP to ATP and allows the newly synthesized ATP to be measured using a coupled luciferase/luciferin reaction. After further 40 minutes luminescence was read by ViewLux Instrument (Perkin Elmer). The data are analyzed by GraphPad Prism software which provides sigmoidal fittings of the curves for IC50 determination using a 4 parameter logistic equation: y=bottom+(top−bottom)/(1+10^((log IC50−x)*slope))
as §2

pIC50 | Compound
C (pIC50 < 6.8) | Cn1cc(-c2cccc(NS(=O)(=O)c3ccc4ccccc4c3)c2F)c2c(N)ncnc21 [cmpd 20, Naphthalene-2-sulfonic acid [3-(4-amino-7-methyl-7H-pyrrolo[2,3-d]pyrimidin-5-yl)-2-fluoro-phenyl]-amide]
